Patent publication US20100034903A1, “SHINYLEAF YELLOWHORN EXTRACT, METHODS FOR EXTRACTION AND USES THEREOF” (priority 2006, published 2010)

Experiments:
dementia rat model = assay: Avoidance conditioned reflex of the dementia rat model with destructed cholinergic neuron and Meynert basal ganglia; assay type: in vivo; details: 0.2 g/kg, gavage
Description: The animal model of senile dementia is established pursuant to the method disclosed in “Experimental Alzheimer's Disease Animal Model with Destructed Cholinergic Neuron” (Pharmacological Experimental Methodology, Third Edition, […]). The kainic acid is a receptor agonist for the central exciting neurotransmitter glutamate, which has been widely used as a tool drug to establish the neurotoxicity model by the international community. Administration mode: gavage administration. The Piracetam-NEGPF [piracetam, […] acetamide, amide pyrrole ring (ketone)] is a brain metabolism nootropics that can protect and repair cranial nerve cells, promote the transformation of ADP into ATP in the brain and the synthesis of acetylcholine and prevent against the brain function injury caused by the physical and chemical factors, and is used in clinic for the treatment of the brain function disorder due to aging, cerebral vascular accident, traumatic brain injury, and CO poisoning.

[1] = system: mouse sleeping model by sodium pentobarbital; assay: Sleeping hours of the mouse (sodium pentobarbital sleep model); assay type: in vivo; details: mice, 0.02 g/kg gavage one hour prior to sodium pentobarbital
Description: Establish the animal model of sleeping of the mouse by an intraperitoneal injection of sodium pentobarbital. Administer drug by gavage administration one hour prior to the injection, so as to observe the recovery time for the righting reflex of the mouse. Administration mode: gavage administration. The telucidone (meclofenoxate, or centrofenoxine) has an exciting action on central nerve and commonly used for the clinical treatment of traumatic unconscious disturbance and children enuresis.

[2] = system: external bladder sphincter of the rabbit; assay: Bioelectricity of the extracellular electrode of the external bladder sphincter of the rabbit; assay type: in vivo; details: 0.4 mg/kg, gavage
Description: Experimental method: surgically implant indwelling electrode and record the changes of the external bladder sphincter of the rabbit with a physiological recorder. Administration mode: gavage administration. The adrenomimetic drug Midodrine is a selective α1 adrenoceptor agonist, commonly used for treating of stress incontinence clinically.

water-load mice = assay: Urination frequency of water-load mice; assay type: in vivo; details: imipramine 0.01 g/kg*d × 10, gavage
Description: The experimental animal strains used herein are the SPF KM mice and Wistar rats. Each rat or mouse receives gavage drug administration. Shinyleaf yellowhorn extract is the refined extract from Refining Example IV, in the form of capsules. The control drug is imipramine, which has a strong anti-depression action and a weak atropine-like action, and is often used for treatment of the depression and children enuresis. The experimental method is calculating the urination frequency of mice based on the colorable reaction taking place when the dried potassium iodide and starch are mixed with the urine.

[3] = system: excised smooth muscle of bladder of rats; assay: Relaxation of excised smooth muscle of bladder of rats; assay type: cell-based; details: rat bladder smooth muscle strips; 12 experiments
Description: The experimental animal strain used herein is the SPF Wistar rats. The experiment process is as follows: the rat bladder is surgically excised to prepare the strips of smooth muscle; place the smooth muscle in the thermostat nutrient solution, and then added with Shinyleaf yellowhorn extract (the refined extract from Refining Example IV, in the form of capsules) and the imipramine respectively, under the oxygen supply conditions, to observe the changes in smooth muscle.

NC(=O)CN1CCCC1=O [Piracetam-NEGPF, piracetam]
Latency (dementia rat model; 72 h post stopping of training): 4.6 ± 0.7 s | Positive rate (dementia rat model; 72 h post stopping of training): 58.2 ± 7.4 % | Latency (dementia rat model; The fifth day): 2.6 ± 0.6 s | Positive rate (dementia rat model; The fifth day): 71.05 ± 8.2 % | Latency (dementia rat model; The first day): 7.1 ± 3.3 s | Positive rate (dementia rat model; The first day): 30.5 ± 12.7% | Latency (dementia rat model; The third day): 4.4 ± 1.0 s | Positive rate (dementia rat model; The third day): 57.6 ± 8.0 %

CN(C)CCOC(=O)COc1ccc(Cl)cc1 [Telucidone, meclofenoxate]
Hour of sleep [1]: 61.2 ± 10.7 min

COc1ccc(OC)c(C(O)CNC(=O)CN)c1 (centres unmarked) [Midodrine]
Frequency [2]: 35.4 ± 11.6 times/min | Time duration [2]: 18.7 ± 10.3 min | Wave amplitude [2]: 14.9 ± 6.7 mv

CN(C)CCCN1c2ccccc2CCc2ccccc21 [Imipramine, imipramine]
Urination frequency (water-load mice; 0.5 h): 0.9 ± 0.7 times/each | Urination frequency (water-load mice; 1.0 h): 2.9 ± 1.3 times/each | Urination frequency (water-load mice; 2.0 h): 2.6 ± 1.5 times/each | Urination frequency (water-load mice; 3.0 h): 1.3 ± 0.8 times/each | Concentration of solution as smooth muscle shows complete relaxation [3]: 0.15 mg/mL
